Source: US12139481B2, “Compositions comprising macrocycle derivatives incorporating bridged macrocycles and methods of producing and using same” (Southwestern Oklahoma State University, priority 2015, dated 2024)

How the values were obtained:
[1] = test system: Cryptococcus neoformans ATCC 90113; assay: Antimicrobial microdilution assay against Cryptococcus neoformans (modified CLSI/NCCLS, optical density); format: cell-based; conditions: for X more potent than Amphotericin B: C. neoformans, ratio of molar IC50 to Amphotericin B; for C. neoformans IC50 / IC50: in vitro, C. neoformans ATCC 90113; for IC50: read-out: C. neoformans IC50 (mol/L)
Procedure, shortened: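 Broth microdilution (modified CLSI) in RPMI pH 6.0, samples serially diluted in 20% DMSO/saline and tested in duplicate, growth followed by OD630 before and after incubation. MFC is the lowest concentration giving no growth when 5 μL from clear wells is plated on agar.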

[2] = test system: C. krusei ATCC 6258; assay: Antifungal broth dilution assay against C. krusei (modified CLSI); format: cell-based, Candida krusei; conditions: for X more potent than Amphotericin B: C. krusei, ratio of molar IC50 to amphotericin B; for C. krusei IC50 / IC50: in vitro; for IC50: read-out: C. krusei IC50 (mol/L)
Description: General Experimental Procedures. All organisms were obtained from the American Type Culture Collection (Manassas, VA) and include the fungi Candida albicans ATCC 90028, C. glabrata ATCC 90030, C. krusei ATCC 6258, and Cryptococcus neoformans ATCC 90113, and the bacteria Staphylococcus aureus ATCC 29213 and methicillin-resistant S. aureus ATCC 33591 (MRS). All organisms were tested using modified versions of the CLSI (formerly NCCLS) methods. For all organisms, optical density was used to monitor growth (NCCLS, Reference Method for Broth Dilution Antifungal Susceptibility Testing of Yeasts; Approved Standard M27-A2. National Committee on Clinical Laboratory Standards, 2002 22 (15); and NCCLS, Methods for Dilution Antimicrobial Susceptibility Tests for Bacteria that Grow Aerobically; Approved Standard, Seventh Edition M7-A7. National Committee on Clinical Laboratory Standards, 2006. 26(2)).
Samples (dissolved in DMSO) were serially-diluted in 20% DMSO/saline and transferred (10 μL) in duplicate to 96 well flat bottom microplates. Inocula were prepared by correcting the OD630 of microbe suspensions in incubation broth [RPMI 1640/0.2% dextrose/0.03% glutamine/MOPS @ pH 6.0 (Cellgro) for Candida spp., Sabouraud Dextrose for C. neoformans, and cation-adjusted Mueller-Hinton (Difco) @ pH 7.3 for Staphylococcus spp. to afford an assay volume of […] and final target inocula of: Candida spp. and C. neoformans: 1.5×10^3, and Staphylococcus spp.: 5.0×10^5 CFU/ml. Final sample test concentrations were 1/100th the DMSO stock concentration. […] All organisms were read at either 530 nm using the Biotek Powerwave XS plate reader (Bio-Tek Instruments, Vermont) prior to and after incubation: Candida spp. at 35° C. for 46-50 h, Staphylococcus spp. at 35° C. for 16-20 h, and C. neoformans at 35° C. for 70-74 h. IC50s (concentrations that afford 50% inhibition relative to controls) were calculated using XLfit 4.2 software (IDBS, Alameda, CA) using fit model 201. The MIC is defined as the lowest test concentration that allows no detectable growth. Minimum fungicidal or bactericidal concentrations were determined by removing 5 μl from each clear (or blue) well, transferring to fresh media, and incubating as previously mentioned. The MFC/MBC is defined as the lowest test concentration that kills the organism (allows no growth).
Primary Analysis. Samples were tested in duplicate at one test concentration (50 μg/mL), and percent inhibitions were calculated relative to blank and growth controls. Samples showing 50% inhibition in at least one test organism were selected for dose response (Secondary) studies.
Secondary Analysis. Extracts from the Primary Assay, and first-run pure compounds and column fractions were tested in duplicate at 3 test concentrations (5-fold dilutions). Samples dissolved to 20 mg/mL in DMSO were tested at 200, 40, and 8 μg/mL. Samples dissolved to 2 mg/mL in DMSO were tested at 20, 4, and 0.8 μg/mL.

[3] = test system: L. donovani promastigotes; assay: Antileishmanial Alamar Blue assay on promastigotes; format: cell-based, Leishmania donovani; conditions: for X more potent than Pentamidine: L. donovani, ratio of molar IC50 to Pentamidine; for L. donovani IC50 / IC50: promastigotes, 48 hours, Alamar Blue; for IC50: read-out: L. donavani IC50
Procedure, shortened: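 L. donovani promastigotes in RPMI 1640 with 10% FCS, from 3-day culture, were set at 5×10^5/mL and exposed to compound (50-3.1 μg/mL) for 48 hours at 26° C. Growth read by Alamar Blue fluorescence (ex 544/em 590 nm); IC50 from percent growth versus concentration.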

[4] = test system: Plasmodium falciparum W2 clone (Indochina, chloroquine-resistant); assay: In vitro antimalarial assay, chloroquine-resistant W2 clone; format: cell-based; conditions: W2 clone
Description: (§1) The compounds were assayed for in vitro antimalarial activity against the W2 clone and D6 clone of the pathogenic Plasmodium falciparum. The strains of P. falciparum were obtained from the Division of Experimental Therapeutics, Walter Reed Army Institute of Research, Washington D.C. Strains of Sierra Leon D6 and Indochina W2 are chloroquine-sensitive and chloroquine-resistant, respectively. The parasite was grown in type A human RBCs and, two strains subcultured daily with fresh medium and blood cells. On the day of the assay, a suspension of infected blood cells (2% parasitemia and 2% hematocrit) was prepared using type A human red blood cells. Assays were performed by standard 96-well flat-bottomed microplate methods and done in duplicate at different concentrations. IC50 values were obtained from the dose curves. Artemisinin and chloroquine were included in each assay as the drug controls, and DMSO was used as vehicle control. The whole protocol was developed based on the published method of Makler. The cytotoxicity assays were also performed in parallel against the Vero cells, and the selectivity index was measured. A selectivity index of >9 was considered to indicate a lead for further development of antimalarial drug.

[5] = test system: Plasmodium falciparum D6 clone (Sierra Leon, chloroquine-sensitive); assay: In vitro antimalarial assay, chloroquine-sensitive D6 clone; format: cell-based; conditions: D6 clone
Description: as §1

[6] = molar IC50 ratio versus chloroquine

Compound	X more potent than Amphotericin B [1]	C. neoformans IC50 [1]	IC50 [1]	X more potent than Amphotericin B [2]	C. krusei IC50 [2]	IC50 [2]	X more potent than Pentamidine [3]	L. donovani IC50 [3]	IC50 [3]	P. falciparum W2 IC50 [4]	IC50 ([4]; converted with molecular weight, read-out: P. falciparum W2 IC50)	X more potent than chloroquine [4, 6]	P. falciparum D6 IC50 [5]	IC50 ([5]; converted with molecular weight, read-out: P. falciparum D6 IC50)	X more potent than chloroquine [5, 6]
CC(=O)[O-].F[P-](F)(F)(F)(F)F.F[P-](F)(F)(F)(F)F.F[P-](F)(F)(F)(F)F.[Mn+2].[NH4+].[NH4+].c1ccc(CN2CCN3CCCN(CC2)CCN(Cc2ccccc2)CC3)cc1 [AW036, [Mn(Bn2PBCyclen)(C2H3O2)]PF6•2NH4PF6]	0.03	7.070 µg/mL	7.23 µM	0.29	4.990 µg/mL	5.11 µM	0.20	25.41 µg/mL	26 µM	–	–	–	–	–	–
CC(=O)[O-].F[P-](F)(F)(F)(F)F.[Zn+2].c1ccc(CN2CCN3CCCN(CC2)CCN(Cc2ccccc2)CC3)cc1 [AW041, [Zn(Bn2PBCyclen)(C2H3O2)]PF6]	0.02	7.330 µg/mL	–	0.19	5.170 µg/mL	–	0.15	22.92 µg/mL	–	–	–	–	–	–	–
c1c(CN2CCNCCN3CCN(CC3)CC2)cc(CN2CCNCCN3CCN(CC3)CC2)cc1CN1CCNCCN2CCN(CC2)CC1 [CDG29, tris-SB-cyclens]	1.69	0.100 µg/mL	0.141 µM	0.23	4.660 µg/mL	6.57 µM	0.32	11.69 µg/mL	16.5 µM	–	–	–	–	–	–
CC(=O)[O-].CC(=O)[O-].F[P-](F)(F)(F)(F)F.F[P-](F)(F)(F)(F)F.O.O.[Cu+2].[Cu+2].c1cc(CN2CCNCCN3CCN(CC3)CC2)cc(CN2CCNCCN3CCN(CC3)CC2)c1 [OB34, [Cu2(m-SB-Cyclens)(OAc)2][PF6]2•2H2O]	0.32	≤ 0.800 µg/mL	0.748 µM	0.28	5.780 µg/mL	5.4 µM	–	–	–	–	–	–	–	–	–
CC(=O)[O-].CC(=O)[O-].F[P-](F)(F)(F)(F)F.F[P-](F)(F)(F)(F)F.O.[Ni+2].[Ni+2].c1cc(CN2CCNCCN3CCN(CC3)CC2)cc(CN2CCNCCN3CCN(CC3)CC2)c1 [OB35, [Ni2(m-SB-Cyclens)(OAc)2][PF6]2•H2O]	0.31	≤ 0.800 µg/mL	0.768 µM	1.95	0.800 µg/mL	0.768 µM	–	–	–	–	–	–	–	–	–
c1cc(CN2CCNCCCN3CCN(CC3)CC2)ccc1CN1CCNCCCN2CCN(CC2)CC1 [OB45, p-SB-Homocyclens]	0.16	≤ 0.800 µg/mL	1.52 µM	0.98	0.800 µg/mL	1.52 µM	0.16	17.44 µg/mL	33.1 µM	–	–	–	–	–	–
CN1CCN2CCN(CC1)CCN(Cc1nc3ccccc3n1Cc1ccc([N+](=O)[O-])cc1)CC2 [SJA230, CB-BINO2-cyclen]	0.01	7.930 µg/mL	16.6 µM	0.09	7.690 µg/mL	16.1 µM	–	–	–	–	–	–	–	–	–
p-CB-homocyclens HCl salt [TA22C]	0.71	0.310 µg/mL	0.334 µM	–	–	–	0.30	16.31 µg/mL	17.6 µM	0.3189 µg/mL	0.379 µM	1.79	0.2596 µg/mL	0.308 µM	0.12
